Data taken from US20230000876A1, “TREATING CANCERS WITH A CYCLIN-DEPENDENT KINASE INHIBITOR” (Nuvation Bio Inc., priority 2021, published 2023).
Where two headings read alike, the source gives them in different places.

Key:
[1] = tested on: MOLT-4-luc; test: CellTiter-Glo anti-proliferation assay, MOLT-4-luc; format: cell-based
Experimental: (§1) The anti-proliferation effect of 2 compounds (the compound of formula (I) and temozolomide) in 7 CNS metastasis cell lines (MOLT-4-luc, Nalm-6-luc, NCI-H460-luc, ACHN-luc2, PC-9-luc, H1975-luc, and KM12-luc) was evaluated.
(§2) The plating of cells and compound treatments are shown below in the plate map (Table 12). One plate was needed for the test of 2 compounds (the compound of formula (I) and temozolomide) in one cell line. The compound of formula (I) was tested from 10 μM, 3-fold serial dilution. Temozolomide was tested from 100 μM, 3-fold serial dilution.
(§3) All the cell lines were maintained in culture conditions at 37° C. in an atmosphere with 5% CO2 in air. The tumor cells were routinely subcultured. The cells growing in an exponential growth phase were harvested and counted for plating.
(§4) Cells were counted by haemocytometer with Trypan blue staining. Next, 135 μL of cell suspension were plated into the assay plates according to the plate map and 135 μL of assay medium into the blank wells. The plates were incubated at 37° C., 5% CO2, 95% air and 100% relative humidity overnight.
(§5) 4.4.4 Compound Plate (10×) Preparation and Compound Treatment • 10× concentrate compound plate preparation: Add 198 μL of assay medium into each well of the V-bottom plate; then transfer 2 μL of the stock compound solution of each concentration from the stock plate. Add 2 μL of DMSO into the Blank and Control wells. Pipette up and down to mix well. This V-plate is designated as the 10× concentrate compound plate. • For day 0 plate, add 15 μL of the DMSO-medium into the Control wells. The final DMSO concentration was 0.1%. Then directly proceed to cell viability assay. • For assay plate, add 15 μL of the compound-medium of each well from the 10× concentrate compound plate into the cells in 96-well assay plate according to the plate map. Add 15 μL of the DMSO-medium into the Blank and Control wells. The final DMSO concentration was 0.1%. • Return the assay plate into incubator and incubate for 6 days.
(§6) The procedures were performed according to the Promega CellTiter-Glo Luminescent Cell Viability Assay Kit manual (Promega-G7573). • The CellTiter-Glo buffer was thawed and equilibrated to room temperature prior to use. • CellTiter-Glo Substrate was equilibrated to room temperature prior to use. • The entire liquid volume of CellTiter-Glo Buffer was transferred into the amber bottle containing CellTiter-Glo Substrate to reconstitute the lyophilized enzyme/substrate mixture. This forms the CellTiter-Glo Reagent. • The contents were mixed by gently vortexing to obtain a homogeneous solution. • The plate was equilibrated and its contents to room temperature for approximately 30 minutes. 75 μL (equal to the half volume of culture medium present in each well) CellTiter-Glo • Reagent was added in each well. Plates were covered with aluminum foil to protect from light. • The contents were mixed for 2 minutes on an orbital shaker to induce cell lysis. • The plate was incubated at room temperature for 20 minutes to stabilize luminescent signal. • Record luminescence on the 2104 EnVision plate reader.
(§7) Inhibition rate (IR) of the tested compounds was determined by the following formula: IR (%)=(1−(RLU compound−RLU day0)/(RLU control−RLU day0))*100%. The inhibitions of different dose of compound were calculated in Excel file, and then were used to plot inhibition curves and evaluate related parameters, such as Min (%), Max (%) and GI50. The data were interpreted by GraphPad Prism.

[2] = tested on: 7 CNS metastasis cell lines (MOLT-4-luc, Nalm-6-luc, NCI-H460-luc, ACHN-luc2, PC-9-luc, H1975-luc, KM12-luc); test: Anti-proliferation assay, 7 CNS metastasis cell lines taken together; format: cell-based
Experimental: as §1
The plating of cells and compound treatments are shown below in the plate map (Table 12). One plate was needed for the test of 2 compounds (the compound of formula (I) and temozolomide) in one cell line. The compound of formula (I) was tested from 10 μM, 3-fold serial dilution. Temozolomide was tested from 100 μM, 3-fold serial dilution. […]
as §6, with “This forms the CellTiter-Glo Reagent. • The contents were mixed by gently vortexing to obtain a homogeneous solution. • The plate was equilibrated and its contents to room temperature for approximately 30 minutes. 75 μL (equal to the half volume of culture medium present in each well) CellTiter-Glo • Reagent was added in each well.” left out, “reader. […]” for “reader.”

[3] = tested on: COLO 829; test: Cell viability assay, melanoma cell line COLO 829; format: cell-based
Experimental: as §5
as §6, with “This forms the CellTiter-Glo Reagent. • The contents were mixed by gently vortexing to obtain a homogeneous solution. • The plate was equilibrated and its contents to room temperature for approximately 30 minutes. 75 μL (equal to the half volume of culture medium present in each well) CellTiter-Glo • Reagent was added in each well.” left out
as §7, with “The data were interpreted by GraphPad Prism.” left out

[4] = tested on: MCF-7 tumors; format: in vivo; details: for T/C / TGI / Tumor Size: PG-D49
Experimental: The in vivo anti-tumor efficacy of the compound of formula (I) either alone or in combination with fulvestrant on MCF-7 breast tumor model on female Balb/c nude mice was evaluated. The protocol was he same as described in Example 1 with the exception that the dosing schedule of fulvestrant was modified.

[5] = tested on: VCap prostate cancer; test: Non-castrated VCap prostate cancer model; format: in vivo, male CB17/Scid mice
Experimental: Compound (I), enzalutamide, and abiraterone were tested in non-castrated VCap prostate cancer model in male CB17/Scid mice.
All treatment groups reduced mean tumor volume.

[6] = tested on: ACHN-luc2; test: CellTiter-Glo anti-proliferation assay, ACHN-luc2; format: cell-based
Experimental: as §1, §2, §3, §4, §5, §6, §7

[7] = tested on: SK-MEL-28; test: Cell viability assay, melanoma cell line SK-MEL-28; format: cell-based
Experimental: as §5
as §6, with “This forms the CellTiter-Glo Reagent. • The contents were mixed by gently vortexing to obtain a homogeneous solution. • The plate was equilibrated and its contents to room temperature for approximately 30 minutes. 75 μL (equal to the half volume of culture medium present in each well) CellTiter-Glo • Reagent was added in each well.” left out
as §7, with “The data were interpreted by GraphPad Prism.” left out

[8] = tested on: SK-MEL-31; test: Cell viability assay, melanoma cell line SK-MEL-31; format: cell-based
Experimental: as §5
as §6, with “This forms the CellTiter-Glo Reagent. • The contents were mixed by gently vortexing to obtain a homogeneous solution. • The plate was equilibrated and its contents to room temperature for approximately 30 minutes. 75 μL (equal to the half volume of culture medium present in each well) CellTiter-Glo • Reagent was added in each well.” left out
as §7, with “The data were interpreted by GraphPad Prism.” left out

[9] = inhibition rate, 6 days, Compound (I) from 10 μM, temozolomide from 100 μM, 3-fold, 9 points

SMILES: CC(C)N1CCOc2c(F)cc(-c3nc(Nc4ccc(C5CCN(C)CC5)cn4)ncc3F)cc21 [Compound (I), 5-fluoro-4-(8-fluoro-4-isopropyl-3,4-dihydro-2H-benzo[b][1,4]oxazin-6-yl)-N-(5-(1-methylpiperidin-4-yl)pyridin-2-yl)pyrimidin-2-amine]
- GI50 ([1]; 144 h, 6 days incubation, read-out: Absolute GI50): 200 nM
- Max (%) [1, 9]: 103.5%
- Min (%) [1, 9]: −18.4%
- Inhibitory effect in cell viability assay ([2]; current testing concentrations): significant inhibitory effect
- GI50 ([2]; read-out: Absolute GI50 values, range over 7 cell lines): 47 to 2790 nM
- GI50 ([3]; Homo sapiens, COLO-829, read-out: Absolute GI50): 875 nM
- Max (%) ([3]; inhibition rate): 107.94%
- Min (%) ([3]; inhibition rate): −3.11%
- T/C ([4]; 10 mg/kg PO QD): 51.74%
- TGI ([4]; 10 mg/kg PO QD): 55.83%
- Tumor Size ([4]; 10 mg/kg PO QD): 611 mm^3
- T/C ([4]; 30 mg/kg PO QD): 14.39%
- TGI ([4]; 30 mg/kg PO QD): 99.02%
- Tumor Size ([4]; 30 mg/kg PO QD): 170 mm^3
- Toxicity (body weight changes) ([4]; MCF-7 tumor-bearing mice, 50 days): did not display toxicity
- Tumor volume (mean ± SEM) ([5]; Group 3: Compound (I) 10 mg/kg p.o. QD * 26 days, Day 0): 171.8 ± 6 mm^3
- Tumor volume (mean ± SEM) ([5]; Group 3: Compound (I) 10 mg/kg p.o. QD * 26 days, Day 4): 221.9 ± 15.2 mm^3
- Tumor volume (mean ± SEM) ([5]; Group 3: Compound (I) 10 mg/kg p.o. QD * 26 days, Day 7): 260.9 ± 13.8 mm^3
- Tumor volume (mean ± SEM) ([5]; Group 3: Compound (I) 10 mg/kg p.o. QD * 26 days, Day 11): 310.5 ± 19.9 mm^3
- Tumor volume (mean ± SEM) ([5]; Group 3: Compound (I) 10 mg/kg p.o. QD * 26 days, Day 14): 381.2 ± 15.4 mm^3
- Tumor volume (mean ± SEM) ([5]; Group 3: Compound (I) 10 mg/kg p.o. QD * 26 days, Day 18): 420.6 ± 20.2 mm^3
- Tumor volume (mean ± SEM) ([5]; Group 3: Compound (I) 10 mg/kg p.o. QD * 26 days, Day 21): 514.2 ± 16.5 mm^3
- Tumor volume (mean ± SEM) ([5]; Group 3: Compound (I) 10 mg/kg p.o. QD * 26 days, Day 25): 596.9 ± 22.9 mm^3
- Tumor volume (mean ± SEM) ([5]; Group 4: Compound (I) 30 mg/kg p.o. QD * 26 days, Day 0): 171.7 ± 6.1 mm^3
- Tumor volume (mean ± SEM) ([5]; Group 4: Compound (I) 30 mg/kg p.o. QD * 26 days, Day 4): 218.9 ± 14.4 mm^3
- Tumor volume (mean ± SEM) ([5]; Group 4: Compound (I) 30 mg/kg p.o. QD * 26 days, Day 7): 233.4 ± 16.4 mm^3
- Tumor volume (mean ± SEM) ([5]; Group 4: Compound (I) 30 mg/kg p.o. QD * 26 days, Day 11): 253.7 ± 20.6 mm^3
- Tumor volume (mean ± SEM) ([5]; Group 4: Compound (I) 30 mg/kg p.o. QD * 26 days, Day 14): 279.1 ± 23.6 mm^3
- Tumor volume (mean ± SEM) ([5]; Group 4: Compound (I) 30 mg/kg p.o. QD * 26 days, Day 18): 259.2 ± 23.5 mm^3
- Tumor volume (mean ± SEM) ([5]; Group 4: Compound (I) 30 mg/kg p.o. QD * 26 days, Day 21): 235.9 ± 18.3 mm^3
- Tumor volume (mean ± SEM) ([5]; Group 4: Compound (I) 30 mg/kg p.o. QD * 26 days, Day 25): 232.9 ± 21.3 mm^3
- Antitumor effect ([5]; compound (I) 30 mg/kg PO QD, enzalutamide 20 mg/kg PO QD): greatest inhibition of tumor growth
- GI50 ([6]; ACHN-luc2, 144 h, 6 days incubation, read-out: Absolute GI50): 47 nM
- Max (%) [6, 9]: 102.9%
- Min (%) [6, 9]: 6.0%
- GI50 ([7]; Homo sapiens, SK-MEL-28, read-out: Absolute GI50): 152 nM
- Max (%) ([7]; inhibition rate): 106.21%
- Min (%) ([7]; inhibition rate): 1.70%
- Max (%) ([8]; inhibition rate): 125.31%
- Min (%) ([8]; inhibition rate): −0.53%
- GI50 ([8]; read-out: Absolute GI50): 1230 nM
